# Assay results: patent US20160220569A1, “CDK4/6 Inhibitor Dosage Formulations For The Protection Of Hematopoietic Stem And Progenitor Cells During Chemotherapy” (G1 Therapeutics, Inc., priority 2015, published 2016)
# Where “and” joins values, the source holds several entries; their conditions need not be identical. Equal entries are not always repeated. Where two headings read alike, the source gives them in different places.
# Experiments:
# [1] = 14-day toxicokinetic study in dogs; assay type: in vivo, dogs (Beagle); conditions: male and female dogs
# Procedure: Dogs in the control group were not exposed to Compound 1 and so were a true control group.
# The required weight of Compound 1 di-HCl was added to an appropriate size vessel. […] The vessel was placed on a stirring hotplate and the formulation heated to a temperature of 30-35° C. The contents of the vessel were allowed to stir at 30-35° C. or a stir plate until all test article appeared to be dissolved, and for a period of at least 1 hour. The pH of the formulation was verified and adjusted to 4.0-4.5 using 1N HCl or 1N NaOH as required. The formulation was transferred into an appropriate size graduated cylinder. Sufficient vehicle control will be added to the cylinder to obtain the final desired concentration of formulated test article. The completed stock formulation was dispensed into several amber glass bottles as aliquots for each day of dosing. These formulations were stored at controlled room temperature (15-30° C.) until used for dose administration.
# The beagle dog was chosen for this study as it is a species that is used for non-clinical toxicity and pharmacokinetic evaluations and satisfies the regulatory requirement for non-clinical safety studies in a non-rodent species. […]
# [2] = Red blood cell and neutrophil counts after single dose in dogs; assay type: in vivo; conditions: out to 15 days
# [3] = Blood cell counts in mice after 5-Fluorouracil with or without Compound 1; assay type: in vivo; conditions: Compound 1 100 mg/kg before 5FU
# Procedure: Blood cell counts for neutrophils, lymphocytes, red blood cells (RBCs), and platelets were conducted.
# mouse splenocytes = experiment: Interferon gamma from splenocytes stimulated ex vivo with anti-CD3/antiCD28 after 5FU; assay type: in vivo, C57BL/6 Mice; conditions: mice pretreated with 100 mg/kg Compound 1, 5FU 50 mg/kg
# Description: FIG. 59 is a bar graph of interferon gamma concentration (pg/ml) at day 2 and 7 for mouse splenocytes that were isolated and stimulated ex vivo with anti-CD3/antiCD28.
# [4] = Compound 1 PK dosed Days 1-5 with topotecan; assay type: in vivo, human; conditions: for pre-dose concentration averaging: Day 4, mean; for AUC(0-inf) / Cmax / half-life: human, plasma, intravenous; for AUC(0-inf): read-out: AUCinf; for Cmax: read-out: Cmax; for half-life: read-out: t½ (converted)
# Procedure: Analysis of plasma concentration versus time data for calculation of standard pharmacokinetic (PK) parameters following intravenous infusion administration was conducted using Phoenix WinNonlin version 6.3 using a nominal infusion duration and scheduled blood sampling times.
# [5] = 200 mg/m^2 with Topotecan 0.75 mg/m^2 (Cohort 3), Day 1, Max
# [6] = 200 mg/m^2 with Topotecan 0.75 mg/m^2 (Cohort 3), Day 1, individual subjects
# [7] = 200 mg/m^2 with Topotecan 0.75 mg/m^2 (Cohort 3), Day 4, individual subjects
# [8] = 200 mg/m^2 with Topotecan 1.25 mg/m^2 (Cohort 2), Day 1, Max
# [9] = 200 mg/m^2 with Topotecan 1.25 mg/m^2 (Cohort 2), Day 1, Min
# [10] = 200 mg/m^2 with Topotecan 1.25 mg/m^2 (Cohort 2), Day 1, individual subjects
# [11] = 200 mg/m^2 with Topotecan […]^2 (Cohort 1), Day 1, Max
# [12] = 200 mg/m^2 with Topotecan […]^2 (Cohort 1), Day 1, individual subjects
# [13] = 200 mg/m^2 with Topotecan 0.75 mg/m^2 (Cohort 3), Day 1, Geo. Mean
# [14] = 200 mg/m^2 with Topotecan 0.75 mg/m^2 (Cohort 3), Day 1, Mean
# [15] = 200 mg/m^2 with Topotecan 0.75 mg/m^2 (Cohort 3), Day 1, Median
# [16] = 200 mg/m^2 with Topotecan 0.75 mg/m^2 (Cohort 3), Day 4, Geometric Mean
# [17] = 200 mg/m^2 with Topotecan 0.75 mg/m^2 (Cohort 3), Day 4, Mean
# [18] = 200 mg/m^2 with Topotecan 0.75 mg/m^2 (Cohort 3), Day 4, Median
# [19] = 200 mg/m^2 with Topotecan 1.25 mg/m^2 (Cohort 2), Day 1, Geo. Mean
smiles,measurement,setting,value
"CN1CCN(c2ccc(Nc3ncc4cc5n(c4n3)C3(CCCCC3)CNC5=O)nc2)CC1 [Compound 1, 2′-((5-(4-methylpiperazin-1-yl)pyridin-2-yl)amino)-7′,8′-dihydro-6′H-spiro[cyclohexane-1,9′-pyrazino[1′,2′:1,5]pyrrolo[2,3-d]pyrimidin]-6′-one]",systemic exposure with increasing dose level,[1],increased roughly proportionally
same,effect on red blood cells and neutrophils,[2],minimal
same,loss of lymphocytes upon 5FU chemotherapy,[3],significantly less loss
same,loss of neutrophils upon 5FU chemotherapy,[3],significantly less loss
same,loss of platelets upon 5FU chemotherapy,[3],significantly less loss
same,loss of red blood cells upon 5FU chemotherapy,[3],significantly less loss
same,interferon gamma levels,mouse splenocytes,did not decrease significantly
same,AUC24.5,[4]; [5],2540 ng·h/mL
same,AUCinf,[4]; [5],2660 ng·h/mL
same,t½,[4]; [5],9.24 h
same,t½,"[4]; 200 mg/m^2 with Topotecan 0.75 mg/m^2 (Cohort 3), Day 1, Min",6.64 h
same,AUC24.5,[4]; [6],2540 ng·h/mL
same,AUCinf,[4]; [6],2240 ng·h/mL and 2660 ng·h/mL
same,t½,[4]; [6],6.64 h and 9.24 h and 6.69 h
same,t½,"[4]; 200 mg/m^2 with Topotecan 0.75 mg/m^2 (Cohort 3), Day 4, Min",6.87 h
same,t½,[4]; [7],9.54 h and 6.87 h
same,AUC24.5,[4]; [8],2450 ng·h/mL
same,AUCinf,[4]; [8],2720 ng·h/mL
same,AUC24.5,[4]; [9],2130 ng·h/mL
same,t½,[4]; [9],6.14 h
same,AUC24.5,[4]; [10],2450 ng·h/mL and 2130 ng·h/mL
same,AUCinf,[4]; [10],2720 ng·h/mL and 2430 ng·h/mL
same,t½,"[4]; 200 mg/m^2 with Topotecan 1.25 mg/m^2 (Cohort 2), Day 4, Max",10.6 h
same,t½,"[4]; 200 mg/m^2 with Topotecan 1.25 mg/m^2 (Cohort 2), Day 4, Min",7.15 h
same,t½,"[4]; 200 mg/m^2 with Topotecan 1.25 mg/m^2 (Cohort 2), Day 4, individual subjects",9.10 h and 10.6 h
same,AUCinf,[4]; [11],2430 ng·h/mL
same,t½,[4]; [11],6.24 h
same,t½,"[4]; 200 mg/m^2 with Topotecan […]^2 (Cohort 1), Day 1, Min",5.60 h
same,AUCinf,[4]; [12],2430 ng·h/mL
same,t½,[4]; [12],6.24 h
same,t½,"[4]; 200 mg/m^2 with Topotecan […]^2 (Cohort 1), Day 4, Max",9.15 h
same,t½,"[4]; 200 mg/m^2 with Topotecan […]^2 (Cohort 1), Day 4, Min",6.96 h
same,t½,"[4]; 200 mg/m^2 with Topotecan […]^2 (Cohort 1), Day 4, individual subjects",9.15 h
same,pre-dose concentration averaging,[4]; Cohort 2 (Topotecan 1.25 mg/m^2),33.3 ng/mL
same,pre-dose concentration averaging,[4]; Cohort 3 (Topotecan 0.75 mg/m^2),27.1 ng/mL
same,AUC(0-inf),[4]; [13],2170 ng·h/mL
same,Cmax,[4]; [13],1060 ng/mL
same,half-life,[4]; [13],7.33 h
same,AUC(0-inf),[4]; [14],2200 ng·h/mL
same,Cmax,[4]; [14],1140 ng/mL
same,half-life,[4]; [14],7.4 h
same,AUC(0-inf),[4]; [15],2220 ng·h/mL
same,half-life,[4]; [15],6.85 h
same,half-life,[4]; [6],7.01 h
same,Cmax,[4]; [16],1200 ng/mL
same,half-life,[4]; [16],8.69 h
same,Cmax,[4]; [17],1330 ng/mL
same,half-life,[4]; [17],8.81 h
same,Cmax,[4]; [18],1590 ng/mL
same,half-life,[4]; [18],8.82 h
same,half-life,[4]; [7],10.7 h
same,AUC(0-inf),[4]; [19],2490 ng·h/mL
same,Cmax,[4]; [19],895 ng/mL
same,half-life,[4]; [19],7.77 h
